PubChem BioAssay (NCI)
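Five concentrations, 48 hours, 96-well plates. Here, GI50 denotes the concentration required for 50% inhibition of growth. Definition used: TGI = concentration required for complete inhibition of growth.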

Key:
Assay in all cases: NCI anticancer screen, dose series, 48 h
CAKI-1 renal = test system: CAKI-1 renal
HCT-116 colon = test system: HCT-116 colon
NCI-H522 lung = test system: NCI-H522 lung
OVCAR-3 ovarian = test system: OVCAR-3 ovarian
OVCAR-4 ovarian = test system: OVCAR-4 ovarian
OVCAR-8 ovarian = test system: OVCAR-8 ovarian
SF-268 CNS = test system: SF-268 CNS
SF-539 CNS = test system: SF-539 CNS
U251 CNS = test system: U251 CNS
UACC-257 melanoma = test system: UACC-257 melanoma

SMILES	GI50 (CAKI-1 renal) [µM]	TGI (CAKI-1 renal) [µM]	GI50 (HCT-116 colon) [µM]	TGI (HCT-116 colon) [µM]	GI50 (NCI-H522 lung) [µM]	TGI (NCI-H522 lung) [µM]	GI50 (OVCAR-3 ovarian) [µM]	TGI (OVCAR-3 ovarian) [µM]	GI50 (OVCAR-4 ovarian) [µM]	TGI (OVCAR-4 ovarian) [µM]	GI50 (OVCAR-8 ovarian) [µM]	TGI (OVCAR-8 ovarian) [µM]	GI50 (SF-268 CNS) [µM]	TGI (SF-268 CNS) [µM]	GI50 (SF-539 CNS) [µM]	TGI (SF-539 CNS) [µM]	GI50 (U251 CNS) [µM]	TGI (U251 CNS) [µM]	GI50 (UACC-257 melanoma) [µM]	TGI (UACC-257 melanoma) [µM]
COc1ccc2nc(C)cc(Nc3ccccc3O)c2c1	36.1	> 100	15	82	45.2	> 100	37.2	> 100	22.4	> 100	24.8	69.7	29.2	> 100	19.2	42.2	17.6	35.3	19	43.6
C/C(=C\CC[C@]1(C)OC(C)(C)OC1CC/C(C)=C/CO[Si](c1ccccc1)(c1ccccc1)C(C)(C)C)CC/C=C/CO[Si](C)(C)C(C)(C)C (stereo not given in full)		> 100		> 100		> 100		> 100		> 100		> 100		> 100		> 100		> 100		> 100
C=C1C(=O)O[C@H]2[C@H]1CC/C(CNS(=O)(=O)c1cccc3ccccc13)=C\CC[C@@]1(C)O[C@@H]21	1.12	2.56	1.08	2.3	1.28	2.88	1.16	2.48	1.72	3.68	2.52	9.16	3.74	15.1	1.77	4.02	3.67	15.3	1.64	3.89
O=P1(O)c2ccccc2Nc2cc(C(F)(F)F)ccc21		> 100		> 100		> 100		> 100		> 100		> 100		> 100		> 100		> 100		> 100
O=C1C[C@H]2CC3(CC[C@H]2CN1)OCCO3		> 100		> 100		> 100		> 100		> 100		> 100		> 100		> 100		> 100		> 100
C[CH2][Sn]([Cl])([Cl])[CH2]C	8.91	25.8	> 63.4	> 100	1.16	2.67	98	> 100	> 100	> 100	> 100	> 100	29.7	79.1	40.1	> 100	27.4	> 59.1	18.4	35
CCCN(CCC)C(=O)[C@H](CC)[C@@H]1CC[C@@H](C)[C@@H]([C@H](C)[C@@H](O)[C@@H](C)C(=O)[C@H](CC)C2O[C@]3(C=C[C@@H](O)[C@]4(CC[C@@](C)([C@H]5CC[C@](O)(CC)[C@H](C)O5)O4)O3)[C@H](C)C[C@@H]2C)O1 (stereo not given in full)	1.95	8.7	2.16	5.98	1.82	4.56	1.84	4.46	2.95	13.2	3.5	24.6	3.43	22.7	2.06	4.2	2.87	9.87	2.84	9.83
